Laboratory results from patent publication US20150190416A1, “FILAGGRIN PRODUCTION PROMOTER, THERAPEUTIC AGENT FOR DISEASES ASSOCIATED WITH REDUCTION IN PRODUCTION OF FILAGGRIN, AND METHOD FOR SCREENING FOR SAID THERAPEUTIC AGENT” (KYOTO UNIVERSITY, priority 2012, published 2015).

Legend:
GPR142 = test: Blocking effect by GPR142 RNAi in NHEK cells (Examples 5 and 6); type: cell-based, human; settings: 1 day; for induction of FLG mRNA expression: dependence on GPR142: GPR142 siRNA, compound 10 nM
Description: In this example, it was confirmed that the expression-inducing effects of Compound 1 on GPR142 mRNA and FLG mRNA in NHEK cells were blocked by GPR142 RNAi.
1) 5×10^4 cells/well of NHEK cells (Invitrogen) were plated on a 24-well plate. Then, 500 μl of a culture medium containing a medium for proliferating normal human epidermal keratinocytes (HuMedia-KG2, KURABO INDUSTRIES LTD.) supplemented with hEGF (0.1 ng/ml), insulin (10 μg/ml), hydrocortisone (0.5 μg/ml), gentamycin (50 μg/ml), amphotericin B (50 ng/ml), and bovine brain pituitary extract (BPE) (0.4%, v/v) were added to the plate, and the cells were cultured under the conditions of 37° C. and 5% CO2.
2) After culture under the conditions of the step 1) for 1 day, the medium was exchanged for the culture medium of the step 1) to which CaCl2 (1.2 mM in terms of Ca) was further added as Ca, and culture was conducted under the conditions of 37° C. and 5% CO2. After culture for 1 day, the medium was exchanged for the same culture medium containing Ca, and culture was further conducted for 1 day.
3) The NHEK cells of the step 2) were transfected with 50 nM of siRNA per well of the 24-well plate by using a transfection reagent, Lipofectamine RNA Max (Invitrogen) according to the manufacturer's protocol.
The sequences of the used three kinds of GPR142 siRNAs and the sequences of the used control siRNAs (all the siRNAs are manufactured by Invitrogen) are described below.
4) After culture for 1 day after the transfection with siRNA in the step 3), the medium was exchanged for the culture medium of the step 1) to which a DMSO solution of Compound 1 was added at 10 nM per well, and culture was further conducted for 1 day. As a control, a solvent only (vehicle) was added.
5) An extraction reagent (TRIzol™, Invitrogen) was used, and according to the manufacturer's protocol, total RNA was extracted from each of cells treated with the medicament. A reverse transcriptase reagent (Prime Script™, Takara) was used, and according to the manufacturer's protocol, cDNA was prepared from the total RNA. Next, real-time PCR was conducted by using the following primers and SYBR™ Premix Ex Taq (Takara) with a CFX96 real-time PCR instrument according to the manufacturer's protocol, and the amounts of GPR142 mRNA and FLG mRNA expression were measured. The result of measurement is shown as a GAPDH ratio.
In this example, it was confirmed that the expression-inducing effects of Compound 2 or 3 on GPR142 mRNA and FLG mRNA in NHEK cells were blocked by GPR142 RNAi.
NHEK cells were transfected in the same manner as in Example 5 except that, in the steps 1) to 3) of Example 5, two kinds of GPR142 siRNAs and two kinds of control siRNAs, i.e., GPR142-1 (#HSS139493) and GPR142-3 (#HSS179846) and Control-1 (LOW GC, #129350-200), and Control-3 (HIGH GC, #129350-400) were used as GPR142 siRNAs and control siRNAs, respectively. After culture for 1 day after the transfection was conducted in the same manner as in the step 4) of Example 5, the medium was exchanged for the culture medium to which each of a DMSO solution of Compound 1, a DMSO solution of Compound 2, or a methanol solution of Compound 3 was added at 10 nM per well, and culture was further conducted for 1 day. As a control, a solvent only (vehicle) was added. Regarding each of cells treated with the medicament, real-time PCR was conducted to measure the amounts of GPR142 mRNA and FLG mRNA in the same manner as in the step 5) of Example 5. The results of the measurement are shown as a GAPDH ratio.

FLG monomer = FLG monomer in three-dimensional cultured skin, Western blotting (Example 11); type: cell-based, human; settings: 1 μM, immunoblotting
Description: In this example, the expression-increasing effect of Compound 1 on FLG monomer was examined by using a three-dimensional cultured skin. The expression of the FLG monomer was confirmed by Western blotting.
In this example, the same procedures as those in the steps 1) to 3) of Example 10 were conducted. It should be noted that as a medicament, D) Comparative Compound 3 (M344) was used, as well as A) Compound 1 and C) Comparative Compound 2 of Example 10.
4) The three-dimensional cultured skin obtained in the same manner as in the steps 1) to 3) of Example 10 was recovered, and was cut into pieces with scissors. Then, 100 μl of Lysis buffer (0.1 M Tris-HCl (pH 9.0), 6 M Urea, 1% 2-mercapto-ethanol, 1% SDS, 1 mM EDTA, and Protease inhibitor cocktail) were added and the cells were homogenized with an electrically powered pestle. The homogenized cells were centrifuged at 15,000 rpm at 4° C. for 20 minutes, and the supernatant was recovered to be used as a sample for measurement. The total protein in the sample was quantified by using a protein assay reagent (Bio-Rad Laboratories, Inc.) according to the manufacturer's protocol. The protein was adjusted so that each sample contained 15 μg protein/lane, and the samples were subjected to electrophoresis by SDS-PAGE (Invitrogen, NuPAE Novex Bis-Tris mini Gel 4 to 12%) under the conditions of 100 V and 2 hours. As a marker, Precision Plus Protein Standards (Bio-Rad Laboratories, Inc.) was used. The proteins separated by the electrophoresis were transferred to a PVDF membrane (blotting), and the expression of FLG monomer was confirmed by using an anti-FLG antibody (Filaggrin AKH1, Santa Crus). At that time, Anti-mouse IgG-HRP (GE Healthcare) was used as a secondary antibody, and Amersham ECL Plus Western Blotting Detection Reagents (GE Healthcare) was used as a color developer.

[1] = calcium priming, siRNA 50 nM, Compound 1 10 nM

| Structure (SMILES) | induction of FLG mRNA expression: dependence on GPR142 (GPR142) | production of FLG monomer (FLG monomer) | production of pro-FLG (FLG monomer) | FLG mRNA expression in the presence of GPR142 siRNA (GPR142; [1]) | GPR142 mRNA expression in the presence of GPR142 siRNA (GPR142; [1]) |
| --- | --- | --- | --- | --- | --- |
| CC[C@H](C)[C@H]1O[C@]2(CC[C@@H]1C)C[C@@H]1C[C@@H](C/C=C(\C)[C@@H](O[C@H]3C[C@H](OC)[C@@H](O[C@H]4C[C@H](OC)[C@@H](O)[C@H](C)O4)[C@H](C)O3)[C@@H](C)/C=C/C=C3\CO[C@@H]4[C@H](O)C(C)=C[C@@H](C(=O)O1)[C@]34O)O2 [Compound 2, Ivermectin, reference compound] | mediated by GPR142 |  |  |  |  |
| CCc1ccc(OCc2ccccc2C(=O)Nc2ccc3nc(C)cc(N)c3c2)cc1.Cl [Compound 1, N-(4-Amino-2-methyl-6-quinolyl)-2-[(4-ethylphenoxy)methyl]benzamide hydrochloride] | mediated by GPR142 | clear production of FLG monomer was confirmed | production of a large amount of pro-FLG | suppressed by GPR142 siRNA | suppressed by GPR142 siRNA |
| O=C(CCCCCN1C(=O)c2cccc3cccc(c23)C1=O)NO [Comparative Compound 2, 6-(1,3-Dioxo-1H,3H-benzo[de]isoquinolin-2-yl)hexanoic acid hydroxyamide, reference compound] |  | clear production of FLG monomer was not observed |  |  |  |
